Experiment: Human HepG2 cell viability assay in 384 well format
Format: toxicity, cell-based
Design: dose 125 nL, time 70.5 hour; cytotoxicity at 70.5 h: concentration not given beside the values
Conditions: HepG2 cells, read-out: Inhibition
O=C(NCCNc1ncccn1)C1CC(=O)N(CC2CC2)C1 (centres undefined) showed a cytotoxicity at 70.5 h of 16.4%. CN(Cc1nnc2n1CCC2)C(=O)CCc1ccc2c(c1)OCO2 gave a cytotoxicity at 70.5 h of -7.61%. Molecule c1ccc(-c2nc(CN3CCOC(Cn4cccn4)C3)no2)cc1 (centres undefined) has a cytotoxicity at 70.5 h of 2.47%. CC(C)c1nnc2n1CCN(C(=O)c1ccc3cc[nH]c3c1)C2 gave a cytotoxicity at 70.5 h of 2.26%. In the case of CCc1[nH]ncc1C(=O)N1CCCC(n2ccnc2C(C)C)C1 (centres undefined), the cytotoxicity at 70.5 h was 1.64%. For CC(C)c1nnc2n1CCN(C(=O)c1cccc(C(F)(F)F)c1)C2, the cytotoxicity at 70.5 h was 6.51%. With c1ncn(CC2CN(Cc3noc(C4CC4)n3)CCO2)n1 (centres undefined) the cytotoxicity at 70.5 h was 29.1%. In the case of CCc1ncc2c(n1)CN(CC(=O)Nc1nnc(C)s1)CC2, the cytotoxicity at 70.5 h was -3.21%. Work on c1cnn(CC2CN(Cc3noc(C4CC4)n3)CCO2)c1 (centres undefined) yielded a cytotoxicity at 70.5 h of -0.284%. COc1ccc(CN(C)CC(=O)NC2(C)CCS(=O)(=O)C2)cc1F (centres undefined) gave a cytotoxicity at 70.5 h of -0.516%. Molecule CCn1ccnc1CNCC1CCCN1c1cccnn1 (centres undefined) has a cytotoxicity at 70.5 h of 5.62%. For Cc1ncc2c(n1)CN(Cc1nc3ccccc3o1)CC2, the cytotoxicity at 70.5 h was 11.4%. In the case of CCc1cc(C(=O)N2CCC(Nc3ccc(C)nn3)CC2)sc1C, the cytotoxicity at 70.5 h was -2.56%. In the case of Cc1cc(CN2CCCC2c2noc(C)n2)no1 (centres undefined), the cytotoxicity at 70.5 h was 4.25%. With Cn1ccnc1CN1CCCC1c1noc(C2CC2)n1 (centres undefined) the cytotoxicity at 70.5 h was 1.39%. With OC(CN1CCOCC1)CN1CCc2c(ncn2C2CC2)C1 (centres undefined) the cytotoxicity at 70.5 h was 30.4%. Work on Cc1cnc(CN(C)C2CCN(Cc3ccccc3C#N)C2)o1 (centres undefined) yielded a cytotoxicity at 70.5 h of -5.36%. In the case of CCN1CCN(c2ccc(CNC(=O)c3ccc(Cl)o3)cn2)CC1, the cytotoxicity at 70.5 h was 3.11%. For Cc1noc(C)c1C(=O)NCc1ccc(N2CCOC(C)C2)nc1 (centres undefined), the cytotoxicity at 70.5 h was 4.56%. With Cc1ccccc1CC(=O)N(C)C1CCN(c2ccccn2)CC1 the cytotoxicity at 70.5 h was 25.2%. Molecule Cc1nnc(NC(=O)CN2CCCC(Cn3cncn3)C2)s1 (centres undefined) has a cytotoxicity at 70.5 h of -1.69%. CCNc1cc2c(nn1)CCN(C(=O)c1cc3nc(C)ccc3o1)C2 gave a cytotoxicity at 70.5 h of 22.7%. Work on CCc1nccn1C1CCCN(C(=O)Cc2ccc(OC)c(F)c2)C1 (centres undefined) yielded a cytotoxicity at 70.5 h of 4.08%. Molecule CCc1nc(C2CCCN2C(=O)C2=COCC2)no1 (centres undefined) has a cytotoxicity at 70.5 h of 6.98%. For CN(CC(=O)Nc1ccc(Br)cn1)C(=O)Cc1ccc(O)cc1, the cytotoxicity at 70.5 h was -1.46%. In the case of CCc1noc(C(C)N2CCOCC2)n1 (centres undefined), the cytotoxicity at 70.5 h was 3.88%. With CCc1noc(C(C)N2CCC(N3CCCC3)CC2)n1 (centres undefined) the cytotoxicity at 70.5 h was 24.3%. In the case of Cc1cc(C)n2cc(CN3CCCC3Cn3nc(C)nc3C)nc2n1 (centres undefined), the cytotoxicity at 70.5 h was -6.16%. Molecule CCc1nc(C2CCCN2C(=O)c2ccc3c(c2)nnn3CC)no1 (centres undefined) has a cytotoxicity at 70.5 h of -3.25%. CCc1nc(C2CCCN2C(=O)c2ccc3c(c2)nc(C)n3C)no1 (centres undefined) gave a cytotoxicity at 70.5 h of -8.32%. With Cc1cnn(C2CCCN(C(=O)Cc3ccc(-n4cccn4)cc3)C2)c1 (centres undefined) the cytotoxicity at 70.5 h was -3.4%. CC(C)c1nc(CN2CCCN(Cc3nnc(C4CC4)o3)CC2)no1 showed a cytotoxicity at 70.5 h of 1.11%. Work on Cc1nc(C)n(CC2CCCN2Cc2nc(N)c3ccccc3n2)n1 (centres undefined) yielded a cytotoxicity at 70.5 h of -4.33%. Work on CC(O)CNC(=O)NCc1cccnc1OC1CCCC1 (centres undefined) yielded a cytotoxicity at 70.5 h of -6.8%. In the case of Cc1cc(NC(=O)CCN(CC2CCOC2)C2CC2)no1 (centres undefined), the cytotoxicity at 70.5 h was -9.35%. For Cc1cc(CN(C)C(=O)c2ccnc(N(C)C)c2)no1, the cytotoxicity at 70.5 h was -7.52%. Work on Cc1cc(C(=O)NCc2ccc(N3CCCC(C(N)=O)C3)cc2)no1 (centres undefined) yielded a cytotoxicity at 70.5 h of -12.6%. Molecule COCC(C)NC(=O)c1cc(Br)c2c(c1)OCCO2 (centres undefined) has a cytotoxicity at 70.5 h of -10.9%. Cc1cnn(CC2CN(CC(=O)N3CCc4ccccc43)CCO2)c1 (centres undefined) gave a cytotoxicity at 70.5 h of -10.9%. With Cc1nc(C)n(CC2CCCN2Cc2nc3ccccc3n2C)n1 (centres undefined) the cytotoxicity at 70.5 h was -7.27%. With Cc1nc(C)n(CC2CCCN2Cc2nc3ccccc3nc2C)n1 (centres undefined) the cytotoxicity at 70.5 h was 3.65%. Work on Cc1cc(C)n(C2CCCN(C(=O)c3c(C)c(C)n[nH]c3=O)C2)n1 (centres undefined) yielded a cytotoxicity at 70.5 h of -8.79%. Work on OC(CNCCn1cccn1)c1ccc2c(c1)OCCO2 (centres undefined) yielded a cytotoxicity at 70.5 h of -2.85%. Molecule CC(C)c1nc(C2CCCN2CC(=O)Nc2nncs2)no1 (centres undefined) has a cytotoxicity at 70.5 h of -1.18%. With Cn1c(CN2CCCC2c2noc(C3CC3)n2)cc(=O)n(C)c1=O (centres undefined) the cytotoxicity at 70.5 h was -9.32%. Molecule CCCc1noc(CN2CCCC2c2c(C)nn(C)c2OC)n1 (centres undefined) has a cytotoxicity at 70.5 h of -7.09%. Work on CCn1cnnc1CNC(=O)N1CCOCC1 yielded a cytotoxicity at 70.5 h of -13.2%. With COCCc1noc(CN2CCCC2c2c(C)nn(C)c2C)n1 (centres undefined) the cytotoxicity at 70.5 h was -8.48%. In the case of COc1ccc(F)cc1CN1CCCC(c2cc(C(N)=O)[nH]n2)C1 (centres undefined), the cytotoxicity at 70.5 h was -10.6%. In the case of Cc1cnn(CC2CN(CC(=O)NCc3ccccn3)CCO2)c1 (centres undefined), the cytotoxicity at 70.5 h was 14.8%. Cc1cccc(-c2noc(CN3CCc4nn(C)c(=O)cc4C3)n2)c1 showed a cytotoxicity at 70.5 h of 8.08%. Molecule O=C(c1cc(Cl)c2c(c1)OCCO2)N1CCCC(n2cncn2)C1 (centres undefined) has a cytotoxicity at 70.5 h of -10.2%. In the case of Cc1nc(C)n(CC2CN(CCOc3ccccc3F)CCO2)n1 (centres undefined), the cytotoxicity at 70.5 h was -10.8%. Work on CC(C)c1nc(C2CCCN(Cc3nnc(C4CC4)o3)C2)no1 (centres undefined) yielded a cytotoxicity at 70.5 h of -8.01%. Molecule CNc1snc(C)c1C(=O)N1CCCC(n2ccnc2C(C)C)C1 (centres undefined) has a cytotoxicity at 70.5 h of -5.8%. Work on Cc1cnn(CC2CCCCN2C(=O)CN(C)C2CC2)c1 (centres undefined) yielded a cytotoxicity at 70.5 h of 16.1%. Cc1nc(C2CCCN(C(=O)c3cccc4c3OCO4)C2)no1 (centres undefined) gave a cytotoxicity at 70.5 h of -4.51%. For COc1ccccc1C(=O)NC(CC(=O)O)c1cccs1 (centres undefined), the cytotoxicity at 70.5 h was -3.76%. In the case of CCN1CCC(CNCc2c[nH]nc2C(C)(C)C)C1 (centres undefined), the cytotoxicity at 70.5 h was -2.99%.
